Test results as given in US20230293526A1, “METHOD FOR TREATING CANCER WITH A REVERSE TRANSCRIPTASE INHIBITOR” (PrimeFour Therapeutics, Inc., priority 2020, published 2023).

System: cancer cell lines
Test: Cancer cell proliferation activity of representative nucleosides, CellTiterGlo 72 h (Example 7, Tables 8 and 9)
Assay type: cell-based
Conditions: 72 h
Procedure: Dose response relationships on cell proliferation was assessed for representative nucleosides on cancer cell lines. Briefly, compound treatment of cells started one day after seeding with a final DMSO concentration of 0.1%, and was performed by nanodrop-dispensing using a Tecan Dispenser. 0.1% DMSO (solvent) and Staurosporine (10 μM) served as high control (100% viability) and low control (0% viability), respectively. Cells were cultured in the appropriate media. For the assays, cells were seeded in white cell culture-treated flat and clear bottom multiwell plates and incubated at 37° C. overnight before compound was added. After incubation for 72 h at 37° C. at 5% or 10% CO2 dependent on the medium, cell plates were equilibrated to room temperature for one hour, CellTiterGlo reagent (Promega) was added and luminescence was measured approximately an hour later using a luminometer.
Raw data were converted into percent cell viability relative to the high and low control, which were set to 100% and 0%, respectively.

Molecule `C[C@]1(CO)O[C@@H](n2ccc(N)nc2=O)C[C@@H]1O` [compound 30] has an IC50 (72 h, 5637, bladder) of 180 nM, an IC50 (CLS439, bladder) of 2650 nM and an IC50 (HS729, muscle) of 370 nM. For the same molecule, the IC50 (J82, bladder) was 640 nM, the IC50 (JAR, placenta) was 5240 nM and the IC50 (MT3, breast) was 50 nM. It also gave an IC50 (PC3, prostate) of 150 nM, an IC50 (RD, muscle) of 790 nM and an IC50 (T24, bladder) of 80 nM. It also gave an IC50 (Homo sapiens, 22Rv1, 72 h, 22RV1, prostate) of 1350 nM, an IC50 (Homo sapiens, 786-0, 72 h, 786O, kidney) of 380 nM and an IC50 (Homo sapiens, A204, 72 h, A204, muscle) of 20 nM. For the same molecule, the IC50 (Homo sapiens, A549, 72 h, A549, lung) was 320 nM, the IC50 (Homo sapiens, A673, 72 h, A673, bone) was 500 nM and the IC50 (Homo sapiens, A2780, 72 h, A2780, ovary) was 250 nM. For the same molecule, the IC50 (Homo sapiens, A-375, 72 h, A375, skin) was 330 nM, the IC50 (Homo sapiens, A-431, 72 h, A431, skin) was 280 nM and the IC50 (Homo sapiens, ACHN, kidney) was 340 nM. The IC50 (Homo sapiens, ASPC1, 72 h, ASPC1, pancreas) was 130 nM, the IC50 (Homo sapiens, BT-20, 72 h, BT20, breast) was 670 nM and the IC50 (Homo sapiens, BXPC-3, 72 h, BXPC3, pancreas) was 130 nM. The IC50 (Homo sapiens, C-33-A, C33A, endometrial) was 190 nM, the IC50 (Homo sapiens, CAKI-1, 72 h, CAKI1, kidney) was 70 nM and the IC50 (Homo sapiens, COLO 205, 72 h, COLO205, colon) was 160 nM. The IC50 (Homo sapiens, COLO-678, 72 h, COLO678, colon) was 1710 nM, the IC50 (Homo sapiens, Ca-Ski, CASKI, endometrial) was 1280 nM and the IC50 (Homo sapiens, Caco-2, 72 h, CACO2, colon) was 2960 nM. It also gave an IC50 (Homo sapiens, Calu-6, 72 h, CALU6, lung) of 500 nM, an IC50 (Homo sapiens, DLD-1, 72 h, DLD1, colon) of 580 nM and an IC50 (Homo sapiens, DU-145, 72 h, DU145, prostate) of 280 nM. For the same molecule, the IC50 (Homo sapiens, EFO-21, 72 h, EFO21, ovary) was 450 nM, the IC50 (Homo sapiens, EJ-28, 72 h, EJ28, bladder) was 1020 nM and the IC50 (Homo sapiens, Granta-519, 72 h, GRANTA-519, hematological) was 80 nM. The IC50 (Homo sapiens, HCT-15, 72 h, HCT15, colon) was 540 nM, the IC50 (Homo sapiens, HCT-116, 72 h, HCT116, colon) was 310 nM and the IC50 (Homo sapiens, HEK293, 72 h, HEK293, kidney) was 10900 nM. It also gave an IC50 (Homo sapiens, HL-60, 72 h, HL-60, hematological) of 360 nM, an IC50 (Homo sapiens, HT-29, 72 h, HT29, colon) of 410 nM and an IC50 (Homo sapiens, HT-1080, 72 h, HT1080, connective tissue) of 270 nM. The IC50 (Homo sapiens, HeLa, endometrial) was 330 nM, the IC50 (Homo sapiens, HepG2, 72 h, HEPG2, liver) was 1300 nM and the IC50 (Homo sapiens, Hs-578T, HS578T, breast) was 920 nM. For the same molecule, the IC50 (Homo sapiens, IGROV-1, 72 h, IGROV1, ovary) was 520 nM, the IC50 (Homo sapiens, IMR-90, 72 h, IMR90, lung) was 2120 nM and the IC50 (Homo sapiens, JEG-3, 72 h, JEG3, placenta) was 1250 nM. It also gave an IC50 (Homo sapiens, JIMT-1, 72 h, JIMT1, breast) of 80 nM, an IC50 (Homo sapiens, K562, 72 h, K-562, hematological) of 1440 nM and an IC50 (Homo sapiens, Kasumi 1, 72 h, KASUMI-1, hematological) of 80 nM. For the same molecule, the IC50 (Homo sapiens, L-363, 72 h, L-363, hematological) was greater than 50000 nM, the IC50 (Homo sapiens, LoVo, colon) was 340 nM and the IC50 (Homo sapiens, MCF7, 72 h, MCF7, breast) was 1960 nM. The IC50 (Homo sapiens, MDA-MB-231, 72 h, MDAMB231, breast) was 50 nM, the IC50 (Homo sapiens, MDA-MB-435, 72 h, MDAMB435, skin) was 820 nM and the IC50 (Homo sapiens, MDA-MB-436, 72 h, MDAMB436, breast) was 310 nM. It also gave an IC50 (Homo sapiens, MDA-MB-468, 72 h, MDAMB468, breast) of 290 nM, an IC50 (Homo sapiens, MG-63, 72 h, MG63, bone) of 380 nM and an IC50 (Homo sapiens, MHH-ES-1, 72 h, MHHES1, bone) of 720 nM. It also gave an IC50 (Homo sapiens, MIA PaCa-2, 72 h, MIAPACA2, pancreas) of 540 nM, an IC50 (Homo sapiens, MINO, hematological) of 80 nM and an IC50 (Homo sapiens, MV4-11, 72 h, MV4-11, hematological) of 570 nM. It also gave an IC50 (Homo sapiens, NCI-H23, 72 h, NCI-H23, lung) of 330 nM, an IC50 (Homo sapiens, NCI-H82, 72 h, NCIH82, lung) of 2530 nM and an IC50 (Homo sapiens, NCI-H292, 72 h, NCIH292, lung) of 280 nM. For the same molecule, the IC50 (Homo sapiens, NCI-H460, 72 h, NCIH460, ung) was 420 nM, the IC50 (Homo sapiens, OVCAR-3, 72 h, OVCAR3, ovary) was 380 nM and the IC50 (Homo sapiens, OVCAR-4, 72 h, OVCAR4, ovary) was 1050 nM. The IC50 (Homo sapiens, PANC-1, 72 h, PANC1, pancreas) was 1150 nM, the IC50 (Homo sapiens, PLC-PRF-5, 72 h, PLCPRF5, liver) was 2160 nM and the IC50 (Homo sapiens, Panc1005, 72 h, PANC1005, pancreas) was 430 nM. For the same molecule, the IC50 (Homo sapiens, Ramos, hematological) was 110 nM, the IC50 (Homo sapiens, SAOS-2, 72 h, SAOS2, bone) was 80 nM and the IC50 (Homo sapiens, SF-268, 72 h, SF268, brain) was 150 nM. For the same molecule, the IC50 (Homo sapiens, SF-295, 72 h, SF295, brain) was 730 nM, the IC50 (Homo sapiens, SK-BR-3, 72 h, SKBR3, breast) was 190 nM and the IC50 (Homo sapiens, SK-HEP1, 72 h, SKHEP1, liver) was 120 nM. It also gave an IC50 (Homo sapiens, SK-LMS-1, 72 h, SKLMS1, uterus) of 1350 nM, an IC50 (Homo sapiens, SK-MEL-5, 72 h, SKMEL5, skin) of 3650 nM and an IC50 (Homo sapiens, SK-MEL-28, 72 h, SKMEL28, skin) of 1180 nM. The IC50 (Homo sapiens, SK-N-AS, SKNAS, brain) was 1410 nM, the IC50 (Homo sapiens, SK-N-SH, SKNSH, brain) was greater than 50000 nM and the IC50 (Homo sapiens, SK-OV-3, 72 h, SKOV3, ovary) was 280 nM. It also gave an IC50 (Homo sapiens, SNB-75, 72 h, SNB75, brain) of 830 nM, an IC50 (Homo sapiens, SU-DHL10, 72 h, SU-DHL-10, hematological) of 360 nM and an IC50 (Homo sapiens, SU-DHL-6, 72 h, SU-DHL-6, hematological) of 330 nM. The IC50 (Homo sapiens, SW-620, 72 h, SW620, colon) was 650 nM, the IC50 (Homo sapiens, TE-671, 72 h, TE671, muscle) was 440 nM and the IC50 (Homo sapiens, THP-1, 72 h, THP-1, hematological) was 1230 nM. The IC50 (Homo sapiens, U2OS, bone) was 670 nM, the IC50 (Homo sapiens, U-87 MG, U87MG, brain) was 330 nM and the IC50 (Homo sapiens, UMUC3, 72 h, UMUC3, bladder) was 560 nM. It also gave an IC50 (Homo sapiens, UO-31, 72 h, UO31, kidney) of 150 nM, an IC50 (Homo sapiens, WSU-NHL, hematological) of 210 nM and an IC50 (NCI-H358M, NCIH358M, lung) of 50 nM. For the same molecule, the IC50 (PBMC, hematological) was 1030 nM and the IC50 (RD-ES, RDES, bone) was 2200 nM.
